Molecules are shown by their SMILES. Several values for one entry are separate records, joined by “and”; a condition that tells them apart may be missing. Equal values may be shown once. Where only a bound is given, the exact number is not on record here.

For orientation: IC50 means the concentration needed to halve the response being measured. One may read the inhibition as the percentage by which the read-out fell short of the control. The term viability denotes a per cent measure of how many cells are alive, often set against a control.

What all share (format): cell-based
Data set [1] has as its target T1, GPR103 (Homo sapiens, UniProt Q96P65).
T1 construct: host or cells: CHO-K1
T1 sequence (Q96P65 1-431): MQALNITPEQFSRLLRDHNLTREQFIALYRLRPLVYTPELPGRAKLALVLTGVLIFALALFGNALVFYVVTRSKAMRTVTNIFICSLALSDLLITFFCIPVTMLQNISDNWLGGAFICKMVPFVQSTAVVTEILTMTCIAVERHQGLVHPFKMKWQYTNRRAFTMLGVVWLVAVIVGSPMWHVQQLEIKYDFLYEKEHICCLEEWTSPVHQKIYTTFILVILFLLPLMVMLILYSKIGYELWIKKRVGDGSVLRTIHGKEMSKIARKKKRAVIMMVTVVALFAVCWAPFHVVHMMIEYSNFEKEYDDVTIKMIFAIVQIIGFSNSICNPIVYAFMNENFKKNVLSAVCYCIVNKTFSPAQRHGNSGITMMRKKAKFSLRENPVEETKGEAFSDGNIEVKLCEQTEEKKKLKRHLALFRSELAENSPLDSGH
The data set can be described thus: PathHunter β-arrestin GpcrMAX assay. As to the method:
(§1) GpcrMAX panel biosensor assays were used to characterize taveuniamide F (4, 20 µM) (agonist and antagonist mode). The experiments were carried out by DiscoveRx Corporation (Fremont, CA, USA) as described before, using PathHunter β-arrestin enzyme fragment complementation (EFC) technology.
Dose–response curves were obtained by subjecting taveuniamide F (4) to a secondary antagonist screen utilizing ten GPCR biosensor assays (Arrestin) against the following targets: GPR119, NPSR1b, HTR2C, CCR9, CHRM4, GPR120, HTR2A, GPR103, CNR1, and CNR2. Stably transfected HEK293 cells expressing GPR119, U2OS cells expressing NPSR1b, HTR2C and HTR2A, and CHO-K1 cells expressing the rest of the mentioned receptors, were incubated with 4 for 30 min. The assays were performed at 10-point concentrations using 3-fold serial dilutions in duplicate, where the highest concentration was 50 µM.

In data set [2] the target is T2, CNR1 (Homo sapiens, UniProt P21554).
T2 construct: host or cells: CHO-K1
The data set can be described thus: cAMP Hunter eXpress CNR1 (CB1) CHO-K1 GPCR assay. Here is the method:
The experiments (agonist and antagonist mode) were carried out by DiscoveRx Corporation (Fremont, CA, USA). Human CNR1 in stably transfected CHO-K1 cells were seeded in a total volume of 20 μL into white-walled, 384-well microplates and incubated at 37 °C overnight. Before testing, cell plating media was exchanged with 10 μL of assay buffer (HBSS + 10 mM HEPES).
As described in catalog ref. (86-0007P-2277AG) for the agonist mode, intermediate dilution of sample stocks was performed to generate 4× samples in assay buffer. A total of 5 μL of 4× sample and 5 μL of 4× forskolin were added to cells and incubated at 37 °C for 30 min. The final assay vehicle concentration was 1%. The results are expressed as a percent efficacy relative to the maximum response of the control ligand.
As described in catalog ref. (86-0007P-2277AN) for the antagonist mode, intermediate dilution of sample stocks was performed to generate 4× samples in assay buffer. A total of 5 μL of 4X sample was added to cells and incubated at 37 °C for 30 min, and 5uL of 4× EC80 of CP55940 in 4× forskolin reagent was added and cells incubated for 37 °C for 30 min. The final assay vehicle concentration was 1%. The results are expressed as a percent inhibition of the control ligand. The assays were performed at 10-point concentrations of 4 using 3-fold serial dilutions in duplicate, where the highest concentration was 50 µM.

Data set [3] has as its system HEK293 cells. The data set is described as follows: MTT cell viability assay. The settings on record: 24 h exposure, 100 μM. As to the method: (§2) HEK293 cells were purchased from ATCC (Manassas, VA, USA). They were cultured and maintained in Dulbecco’s modified Eagle medium (DMEM; Invitrogen, Waltham, MA, USA) supplemented with 10% fetal bovine serum (FBS; HyClone, Logan, UT, USA) and 1% antibiotic-antimycotic (Invitrogen) at 37 °C in a humidified atmosphere with 5% CO2. HEK293 cells were seeded in 96-well plates at densities of 15,000 cells per well in 100 μL, respectively. After 16 h of incubation, the cells were treated with 0.5 μL of various concentrations of compounds or a DMSO solvent control. Following 24 h of incubation, cells were treated with 3-(4,5-dimethylthiazol-2-yl)-2,5-diphenyltetrazolium bromide according to the manufacturer’s instructions (Promega, Madison, WI, USA). The experiments were performed as technical triplicates.
For orientation: Tetrazolium dyes change colour on reduction, which living cells bring about.

A short description of data set [4]: MTT cell viability assay. The settings on record: human, HEK293 cells; 24 h exposure, majority of tested concentrations (below 100 μM). Here is the method: as §2
Data set [5] addresses T3, FFAR1 (Homo sapiens, UniProt O14842).
T3 construct: purchased DiscoveRx (Eurofins) gpcrMAX PathHunter β-arrestin panel
The data set is described as follows: PathHunter β-arrestin GpcrMAX assay. As to the method:
as §1

In data set [6] the target is T4, TACR1 (Homo sapiens, UniProt P25103).
T4 construct: purchased DiscoveRx (Eurofins) gpcrMAX PathHunter β-arrestin panel
The data set is described as follows: PathHunter β-arrestin GpcrMAX assay. Here is the method: as §1

Data set [7] deals with T5, DRD2L (Homo sapiens, UniProt P14416).
T5 construct: purchased DiscoveRx (Eurofins) gpcrMAX PathHunter β-arrestin panel
The data set can be described thus: PathHunter β-arrestin GpcrMAX assay. Here is the method: as §1

The target in data set [8] is T6, HRH3 (Homo sapiens, UniProt Q9Y5N1).
T6 construct: purchased DiscoveRx (Eurofins) gpcrMAX PathHunter β-arrestin panel
The data set is described as follows: PathHunter β-arrestin GpcrMAX assay. As to the method:
as §1

In data set [9] the target is T7, PPYR1 (Homo sapiens, UniProt P50391).
T7 construct: purchased DiscoveRx (Eurofins) gpcrMAX PathHunter β-arrestin panel
The data set is described as follows: PathHunter β-arrestin GpcrMAX assay. Here is the method: as §1

In data set [10] the target is BDKRB1 (Homo sapiens, UniProt P46663). The data set can be described thus: PathHunter β-arrestin GpcrMAX assay. Here is the method: as §1
The target of data set [11] is T8, HCRTR1 (Homo sapiens, UniProt O43613).
T8 construct: purchased DiscoveRx (Eurofins) gpcrMAX PathHunter β-arrestin panel
The data set can be described thus: PathHunter β-arrestin GpcrMAX assay. Here is the method:
as §1

Data set [12] has as its target T9, CCR1 (Homo sapiens, UniProt P32246).
T9 construct: purchased DiscoveRx (Eurofins) gpcrMAX PathHunter β-arrestin panel
The data set is described as follows: PathHunter β-arrestin GpcrMAX assay. As to the method: as §1

In data set [13] the target is T10, HRH4 (Homo sapiens, UniProt Q9H3N8).
T10 construct: purchased DiscoveRx (Eurofins) gpcrMAX PathHunter β-arrestin panel
The data set can be described thus: PathHunter β-arrestin GpcrMAX assay. Here is the method: as §1

In data set [14] the target is T11, P2RY4 (Homo sapiens, UniProt P51582).
T11 construct: purchased DiscoveRx (Eurofins) gpcrMAX PathHunter β-arrestin panel
The data set is described as follows: PathHunter β-arrestin GpcrMAX assay. Here is the method: as §1

Data set [15] has as its target T12, CHRM2 (Homo sapiens, UniProt P08172).
T12 construct: purchased DiscoveRx (Eurofins) gpcrMAX PathHunter β-arrestin panel
The data set can be described thus: PathHunter β-arrestin GpcrMAX assay. As to the method: as §1

In data set [16] the target is T13, NPY2R (Homo sapiens, UniProt P49146).
T13 construct: purchased DiscoveRx (Eurofins) gpcrMAX PathHunter β-arrestin panel
The data set can be described thus: PathHunter β-arrestin GpcrMAX assay. Here is the method: as §1

For data set [17], the target named is T14, SSTR5 (Homo sapiens, UniProt P35346).
T14 construct: purchased DiscoveRx (Eurofins) gpcrMAX PathHunter β-arrestin panel
The data set can be described thus: PathHunter β-arrestin GpcrMAX assay. As to the method: as §1

Data set [18] concerns the target T15, NPFFR1 (Homo sapiens, UniProt Q9GZQ6).
T15 construct: purchased DiscoveRx (Eurofins) gpcrMAX PathHunter β-arrestin panel
The data set is described as follows: PathHunter β-arrestin GpcrMAX assay. As to the method: as §1

[19] abbreviates: antagonist mode (% inhibition), 20 µM.

T2 sequence (P21554 whole entry): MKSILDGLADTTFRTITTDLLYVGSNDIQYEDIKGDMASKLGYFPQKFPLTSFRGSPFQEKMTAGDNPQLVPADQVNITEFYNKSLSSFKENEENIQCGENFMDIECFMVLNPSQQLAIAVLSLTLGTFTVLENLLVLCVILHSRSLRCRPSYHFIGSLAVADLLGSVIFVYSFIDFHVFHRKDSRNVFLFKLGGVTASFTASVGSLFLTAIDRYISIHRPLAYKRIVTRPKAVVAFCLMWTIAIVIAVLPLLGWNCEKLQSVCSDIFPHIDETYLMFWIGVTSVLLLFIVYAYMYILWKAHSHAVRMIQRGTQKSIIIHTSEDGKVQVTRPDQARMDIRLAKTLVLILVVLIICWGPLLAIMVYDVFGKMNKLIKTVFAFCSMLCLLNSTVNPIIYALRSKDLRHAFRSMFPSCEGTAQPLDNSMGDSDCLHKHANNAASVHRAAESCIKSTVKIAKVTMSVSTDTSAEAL
T10 sequence (Q9H3N8 whole entry): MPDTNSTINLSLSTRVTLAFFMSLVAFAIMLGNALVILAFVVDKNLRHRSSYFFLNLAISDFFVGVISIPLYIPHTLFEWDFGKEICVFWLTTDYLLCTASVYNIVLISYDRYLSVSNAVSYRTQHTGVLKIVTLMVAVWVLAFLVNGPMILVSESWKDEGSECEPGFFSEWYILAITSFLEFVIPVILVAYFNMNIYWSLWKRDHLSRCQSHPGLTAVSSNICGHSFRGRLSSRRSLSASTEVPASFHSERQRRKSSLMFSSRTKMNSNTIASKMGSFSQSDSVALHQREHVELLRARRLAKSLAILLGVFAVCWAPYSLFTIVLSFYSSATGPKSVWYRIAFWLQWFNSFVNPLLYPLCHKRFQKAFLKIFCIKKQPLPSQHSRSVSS
T8 sequence (O43613 whole entry): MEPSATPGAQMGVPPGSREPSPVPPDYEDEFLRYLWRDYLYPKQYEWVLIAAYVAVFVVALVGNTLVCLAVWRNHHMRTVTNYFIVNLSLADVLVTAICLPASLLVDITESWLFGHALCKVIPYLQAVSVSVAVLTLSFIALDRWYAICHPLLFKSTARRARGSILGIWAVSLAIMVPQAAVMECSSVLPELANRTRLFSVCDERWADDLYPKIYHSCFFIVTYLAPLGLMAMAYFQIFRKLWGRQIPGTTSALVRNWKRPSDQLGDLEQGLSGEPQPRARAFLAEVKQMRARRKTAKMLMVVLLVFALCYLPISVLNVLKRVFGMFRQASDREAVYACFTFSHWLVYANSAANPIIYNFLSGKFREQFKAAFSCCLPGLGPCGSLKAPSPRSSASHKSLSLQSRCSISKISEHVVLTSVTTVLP
T5 sequence (P14416 whole entry): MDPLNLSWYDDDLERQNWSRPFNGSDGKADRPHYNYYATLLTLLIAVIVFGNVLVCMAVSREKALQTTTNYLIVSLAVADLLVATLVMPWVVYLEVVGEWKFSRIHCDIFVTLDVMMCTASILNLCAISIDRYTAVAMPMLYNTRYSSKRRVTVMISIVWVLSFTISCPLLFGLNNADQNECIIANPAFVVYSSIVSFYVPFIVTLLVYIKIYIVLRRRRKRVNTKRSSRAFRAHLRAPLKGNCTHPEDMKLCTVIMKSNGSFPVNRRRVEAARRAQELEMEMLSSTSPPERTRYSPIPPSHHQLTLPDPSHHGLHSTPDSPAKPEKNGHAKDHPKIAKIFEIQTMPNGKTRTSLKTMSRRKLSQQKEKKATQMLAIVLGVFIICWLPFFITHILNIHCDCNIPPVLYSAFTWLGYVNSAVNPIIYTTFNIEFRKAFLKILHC
T7 sequence (P50391 whole entry): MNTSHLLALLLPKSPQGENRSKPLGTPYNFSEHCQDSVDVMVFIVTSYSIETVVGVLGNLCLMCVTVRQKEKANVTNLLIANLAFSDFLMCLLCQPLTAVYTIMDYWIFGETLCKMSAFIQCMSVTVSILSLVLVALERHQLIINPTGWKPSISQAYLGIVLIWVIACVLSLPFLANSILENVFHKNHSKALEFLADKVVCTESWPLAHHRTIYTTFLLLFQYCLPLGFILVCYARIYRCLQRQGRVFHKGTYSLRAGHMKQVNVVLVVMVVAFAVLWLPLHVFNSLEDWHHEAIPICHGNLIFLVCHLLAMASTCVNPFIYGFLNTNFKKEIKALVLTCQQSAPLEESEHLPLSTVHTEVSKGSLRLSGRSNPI
T13 sequence (P49146 whole entry): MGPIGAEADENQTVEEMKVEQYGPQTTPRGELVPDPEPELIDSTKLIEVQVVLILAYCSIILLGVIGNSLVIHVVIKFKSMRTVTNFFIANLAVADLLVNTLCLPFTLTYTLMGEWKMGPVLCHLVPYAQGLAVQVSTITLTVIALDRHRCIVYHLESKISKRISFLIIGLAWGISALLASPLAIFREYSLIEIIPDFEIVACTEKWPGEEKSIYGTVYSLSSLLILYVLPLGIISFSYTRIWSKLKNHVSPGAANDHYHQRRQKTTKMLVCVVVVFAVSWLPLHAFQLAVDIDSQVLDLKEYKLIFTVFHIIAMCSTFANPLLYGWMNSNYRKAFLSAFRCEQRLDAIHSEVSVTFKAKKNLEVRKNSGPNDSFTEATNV
T12 sequence (P08172 whole entry): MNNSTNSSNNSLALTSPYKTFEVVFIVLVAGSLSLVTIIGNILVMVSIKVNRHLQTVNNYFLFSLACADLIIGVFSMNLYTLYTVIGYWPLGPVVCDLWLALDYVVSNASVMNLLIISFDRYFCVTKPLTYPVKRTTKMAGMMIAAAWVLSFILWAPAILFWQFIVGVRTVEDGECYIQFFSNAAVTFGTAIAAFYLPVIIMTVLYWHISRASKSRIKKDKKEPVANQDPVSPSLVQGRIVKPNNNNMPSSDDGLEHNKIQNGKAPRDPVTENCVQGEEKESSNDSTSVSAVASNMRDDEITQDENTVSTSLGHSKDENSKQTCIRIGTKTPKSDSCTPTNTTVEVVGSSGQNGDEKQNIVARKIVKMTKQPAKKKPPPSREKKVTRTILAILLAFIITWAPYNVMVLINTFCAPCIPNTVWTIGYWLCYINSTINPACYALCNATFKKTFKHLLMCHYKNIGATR
T11 sequence (P51582 whole entry): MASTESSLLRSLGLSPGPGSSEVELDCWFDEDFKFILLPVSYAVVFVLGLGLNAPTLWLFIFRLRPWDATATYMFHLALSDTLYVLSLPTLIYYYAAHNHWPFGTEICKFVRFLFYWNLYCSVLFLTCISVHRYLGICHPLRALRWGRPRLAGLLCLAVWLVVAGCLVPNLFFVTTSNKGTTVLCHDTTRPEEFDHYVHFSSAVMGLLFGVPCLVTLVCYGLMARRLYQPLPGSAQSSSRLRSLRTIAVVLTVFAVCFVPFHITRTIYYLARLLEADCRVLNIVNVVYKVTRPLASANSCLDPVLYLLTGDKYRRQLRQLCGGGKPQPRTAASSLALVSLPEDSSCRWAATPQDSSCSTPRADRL
T15 sequence (Q9GZQ6 whole entry): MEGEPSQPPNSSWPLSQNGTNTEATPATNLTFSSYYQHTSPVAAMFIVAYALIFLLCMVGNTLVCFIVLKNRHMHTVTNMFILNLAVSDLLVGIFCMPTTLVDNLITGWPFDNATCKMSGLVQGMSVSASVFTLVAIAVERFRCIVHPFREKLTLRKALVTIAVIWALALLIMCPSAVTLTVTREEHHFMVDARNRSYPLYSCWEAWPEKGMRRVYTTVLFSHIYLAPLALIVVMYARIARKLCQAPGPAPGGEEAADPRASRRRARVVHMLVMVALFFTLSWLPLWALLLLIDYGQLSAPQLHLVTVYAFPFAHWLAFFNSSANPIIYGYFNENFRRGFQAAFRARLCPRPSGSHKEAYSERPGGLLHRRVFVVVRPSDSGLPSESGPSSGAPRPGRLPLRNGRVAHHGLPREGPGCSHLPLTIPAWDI
T3 sequence (O14842 whole entry): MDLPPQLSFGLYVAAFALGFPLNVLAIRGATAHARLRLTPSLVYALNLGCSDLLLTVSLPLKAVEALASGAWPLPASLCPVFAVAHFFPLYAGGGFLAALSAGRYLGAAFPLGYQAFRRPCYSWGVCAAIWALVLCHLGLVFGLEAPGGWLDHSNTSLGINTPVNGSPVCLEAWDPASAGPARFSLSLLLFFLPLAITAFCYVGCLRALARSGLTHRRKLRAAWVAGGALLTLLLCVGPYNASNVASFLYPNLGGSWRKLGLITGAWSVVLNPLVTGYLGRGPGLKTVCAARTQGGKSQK
T14 sequence (P35346 whole entry): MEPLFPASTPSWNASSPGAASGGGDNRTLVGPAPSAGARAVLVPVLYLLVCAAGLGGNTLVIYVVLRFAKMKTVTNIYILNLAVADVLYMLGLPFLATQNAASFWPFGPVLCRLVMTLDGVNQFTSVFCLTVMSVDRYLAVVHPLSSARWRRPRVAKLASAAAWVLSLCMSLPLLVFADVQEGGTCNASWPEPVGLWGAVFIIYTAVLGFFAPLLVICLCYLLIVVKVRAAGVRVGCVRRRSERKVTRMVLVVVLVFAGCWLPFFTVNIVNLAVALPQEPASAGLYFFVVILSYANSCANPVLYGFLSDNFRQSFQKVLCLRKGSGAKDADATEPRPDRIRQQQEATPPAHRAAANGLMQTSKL
T6 sequence (Q9Y5N1 whole entry): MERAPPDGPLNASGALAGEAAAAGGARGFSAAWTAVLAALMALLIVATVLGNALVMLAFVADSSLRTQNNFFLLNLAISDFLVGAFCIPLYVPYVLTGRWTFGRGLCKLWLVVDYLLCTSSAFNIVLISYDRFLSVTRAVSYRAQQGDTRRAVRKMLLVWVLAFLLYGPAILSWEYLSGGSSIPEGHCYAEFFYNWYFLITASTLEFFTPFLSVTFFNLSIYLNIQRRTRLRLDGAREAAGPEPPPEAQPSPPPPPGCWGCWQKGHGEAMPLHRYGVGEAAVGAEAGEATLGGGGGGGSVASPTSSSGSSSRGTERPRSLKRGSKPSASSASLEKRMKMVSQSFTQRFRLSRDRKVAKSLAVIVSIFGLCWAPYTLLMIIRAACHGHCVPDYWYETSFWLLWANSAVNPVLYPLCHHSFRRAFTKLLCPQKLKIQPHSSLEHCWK

In the case of `CC(=O)N[C@@H](CCCC#C/C=C/Cl)CCCCCCC(Cl)Cl` [Compound 4, taveuniamide F], the IC50 was 14 µM and 14.1 µM in data set [1] (antagonist dose–response, 10-point, CHO-K1 cells, 30 min); 21 µM in data set [2] (antagonist mode, EC80 of CP55940, forskolin, CHO-K1 cells, read-out: IC50, inhibition of CNR1-agonist-induced cAMP downregulation). In addition, the inhibition in [1] (setting [19]) is no less than 80%. Further, the inhibition at 20 µM in data set [1] (setting [19]) was 79.8%; in [5], 42%; in data set [6], 0.5%; in [7], 3.8%; in data set [8], 5%; in data set [9] it was 50.7%. Also, the inhibition at 20 µM in data set [10] was 26.2%; in [11], 44.9%; in [12], 65.7%; in data set [13] it was 38.1%; in [14], 68.8%; in [15] it was 36.7%. Further, the inhibition at 20 µM in [16] was determined as 0.5%; in data set [17], 2.4%; in [18], 27.9%. For the same compound, the “mode of activity in CNR1 cAMP functional assay” value in data set [2] (agonist and antagonist mode) is on record as “antagonist/inverse agonist”. Besides, in [3], the “reduction in cell viability” value amounted to 56%. Besides, the viability at 24 h in [4] worked out at 100%.

(Values after publication PMC10817531, “Chlorinated Enyne Fatty Acid Amides from a Marine Cyanobacterium: Discovery of Taveuniamides L-M and Pharmacological Characterization of Taveuniamide F as a GPCR Antagonist with CNR1 Selectivity” (Marine Drugs, 2023).)
